Results from US7906530B2, “1,7-naphthyridine derivatives as p38 MAP kinase inhibitors” (Laboratorios Almirall, S.A., priority 2006, dated 2011).

Columns and labels:
[1] = test system: TNFα production in human monocytic cell line THP-1; experiment: Functional assay: inhibition of LPS-induced TNFα production in THP-1 cells; type: cell-based; details: LPS 10 μg/ml, 5 h at 37° C., TNFα ELISA
[2] = target: T1, human p38alfa (SAPKa) enzyme (Homo sapiens, UniProt Q16539); experiment: p38alpha enzymatic inhibition assay (FRET, ATF2 phosphorylation); type: biochemical; details: 1 h pre-incubation; biotinylated ATF2 0.62 μM, ATP 60 μM; 1 h at 25° C.; read-out: p38α IC50
T1 construct: purchased University of Dundee
T1 sequence (Q16539 whole entry): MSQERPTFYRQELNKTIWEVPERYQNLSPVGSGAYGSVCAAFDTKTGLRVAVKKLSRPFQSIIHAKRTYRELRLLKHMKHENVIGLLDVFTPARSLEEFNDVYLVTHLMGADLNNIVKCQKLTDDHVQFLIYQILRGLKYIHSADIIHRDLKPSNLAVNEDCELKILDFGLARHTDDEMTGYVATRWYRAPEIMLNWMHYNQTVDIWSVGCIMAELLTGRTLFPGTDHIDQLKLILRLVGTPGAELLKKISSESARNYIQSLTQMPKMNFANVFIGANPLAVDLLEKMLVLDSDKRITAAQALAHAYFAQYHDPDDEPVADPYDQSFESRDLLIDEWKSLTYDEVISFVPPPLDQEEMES

Compound	IC50 [1] [nM]	IC50 [2] [nM]
[O-][n+]1ccc2c(-c3ccc(F)cc3F)ccnc2c1-c1c(F)cccc1F [Example 19, 4-(2,4-Difluorophenyl)-8-(2,6-difluorophenyl)-1,7-naphthyridine 7-oxide]	223	–
[O-][n+]1ccc2c(-c3ccc(F)cc3F)cc(C3CCNCC3)nc2c1-c1c(F)cccc1F [Example 29, 4-(2,4-Difluorophenyl)-8-(2,6-difluorophenyl)-2-piperidin-4-yl-1,7-naphthyridine 7-oxide]	2.45	0.9
CC(C)(C)N1CCC(c2cc(-c3ccc(F)cc3F)c3cc[n+]([O-])c(-c4c(F)cccc4F)c3n2)CC1 [Example 35, 2-(1-Tert-butylpiperidin-4-yl)-4-(2,4-difluorophenyl)-8-(2,6-difluorophenyl)-1,7-naphthyridine 7-oxide]	3.4	2.8
CC(C)(C)N1CCC(c2cc(-c3ccc(F)cc3F)c3cc[n+]([O-])c(-c4c(Cl)cccc4Cl)c3n2)CC1 [Example 36, 2-(1-Tert-butylpiperidin-4-yl)-8-(2,6-dichlorophenyl)-4-(2,4-difluorophenyl)-1,7-naphthyridine 7-oxide]	1.6	1.2
[O-][n+]1ccc2c(-c3ccc(F)cc3Cl)ccnc2c1-c1c(F)cccc1F [Example 39, 4-(2-Chloro-4-fluorophenyl)-8-(2,6-difluorophenyl)-1,7-naphthyridine 7-oxide]	63	87
[O-][n+]1ccc2c(-c3ccc(F)cc3Cl)ccnc2c1-c1c(Cl)cccc1Cl [Example 40, 4-(2-Chloro-4-fluorophenyl)-8-(2,6-dichlorophenyl)-1,7-naphthyridine 7-oxide]	43.5	–
[O-][n+]1ccc2c(-c3ccc(F)cc3Cl)cc(C3CCNCC3)nc2c1-c1c(Cl)cccc1Cl [Example 43, 4-(2-Chloro-4-fluorophenyl)-8-(2,6-dichlorophenyl)-2-piperidin-4-yl-1,7-naphthyridine 7-oxide]	2.9	–
CC(C)(C)N1CCC(c2cc(-c3ccc(F)cc3Cl)c3cc[n+]([O-])c(-c4c(F)cccc4F)c3n2)CC1 [Example 48, 2-(1-Tert-butylpiperidin-4-yl)-4-(2-chloro-4-fluorophenyl)-8-(2,6-difluorophenyl)-1,7-naphthyridine 7-oxide]	3	1.6
CC(C)(C)N1CCC(c2cc(-c3ccc(F)cc3Cl)c3cc[n+]([O-])c(-c4c(Cl)cccc4Cl)c3n2)CC1 [Example 49, 2-(1-Tert-butylpiperidin-4-yl)-4-(2-chloro-4-fluorophenyl)-8-(2,6-dichlorophenyl)-1,7-naphthyridine 7-oxide]	0.46	–
[O-][n+]1ccc2c(-c3ccccc3Cl)cc(C3CCNCC3)nc2c1-c1c(F)cccc1F [Example 52, 4-(2-Chlorophenyl)-8-(2,6-difluorophenyl)-2-piperidin-4-yl-1,7-naphthyridine 7-oxide]	4.2	–
[O-][n+]1ccc2c(-c3ccccc3Cl)cc(C3CCNCC3)nc2c1-c1c(Cl)cccc1Cl [Example 53, 4-(2-Chlorophenyl)-8-(2,6-dichlorophenyl)-2-piperidin-4-yl-1,7-naphthyridine 7-oxide]	0.53	0.34
CC(C)(C)N1CCC(c2cc(-c3ccccc3Cl)c3cc[n+]([O-])c(-c4c(Cl)cccc4Cl)c3n2)CC1 [Example 59, 2-(1-Tert-butylpiperidin-4-yl)-4-(2-chlorophenyl)-8-(2,6-dichlorophenyl)-1,7-naphthyridine 7-oxide]	0.1	0.41
[O-][n+]1ccc2c(-c3ccc(F)cc3F)cc(NC3CCNCC3)nc2c1-c1c(Cl)cccc1Cl [Example 86, 8-(2,6-Dichlorophenyl)-4-(2,4-difluorophenyl)-N-piperidin-4-yl-1,7-naphthyridin-2-amine 7-oxide]	0.9	0.37
[O-][n+]1ccc2c(-c3ccc(F)cc3F)cc(N3CCNCC3)nc2c1-c1c(Cl)cccc1Cl [Example 90, 8-(2,6-Dichlorophenyl)-4-(2,4-difluorophenyl)-2-piperazin-1-yl-1,7-naphthyridine 7-oxide]	0.8	1.1
[O-][n+]1ccc2c(-c3ccc(F)cc3F)cc(N3CCNCC3)nc2c1-c1c(F)cccc1F [Example 91, 4-(2,4-Difluorophenyl)-8-(2,6-difluorophenyl)-2-piperazin-1-yl-1,7-naphthyridine 7-oxide]	4.1	–
[O-][n+]1ccc2c(-c3ccc(F)cc3F)cc(OC3CCNCC3)nc2c1-c1c(Cl)cccc1Cl [Example 95, 8-(2,6-Dichlorophenyl)-4-(2,4-difluorophenyl)-2-(piperidin-4-yloxy)-1,7-naphthyridine 7-oxide]	0.2	0.92
[O-][n+]1ccc2c(-c3ccc(F)cc3F)cc(OC3CCNCC3)nc2c1-c1c(F)cccc1F [Example 96, 4-(2,4-Difluorophenyl)-8-(2,6-difluorophenyl)-2-(piperidin-4-yloxy)-1,7-naphthyridine 7-oxide]	3.2	0.22
